Experimental data from patent US20120122797A1, “PEPTIDIC COMPOUND AND USE OF SAME” (KEIO UNIVERSITY, priority 2009, published 2012).
In brackets after ≈: the same amount, converted by molar mass. Numbered stars: 1 amine (or outer) side, 2 acyl side, 3 side chain; on linkers, the order of the positions; unused ones are H or OH. Square brackets hold non-standard residues; d marks the D form. Peptide text beside a SMILES is read from it. * marks the point of attachment. ξ: configuration not given here. X1 = C[C@H]1C[C@@H](C2=N[C@](C)(C(=O)[*:2])CS2)N([*:1])C1; ξNMeTyr(3-Br) = CNC(Cc1ccc(O)c(Br)c1)C(=O)O; NMeF = CN[C@@H](Cc1ccccc1)C(=O)O; Piv = CC(C)(C)C(=O)*; X2 = CCC(=O)C1CCCN1*

Legend:
Type in all cases: cell-based
phosphorylation of AKT = test: protein kinase inhibition: Western blot of phosphorylated AKT in PDGF-stimulated NRK cells; conditions: treated 3 hours, PDGF stimulation, 10, 1 and 0.1 μM
Protocol: (§1) NRK cells were seeded in a 96-well plate, and cultured for 3 days. A sample solution was added thereto and treated for 3 hours, followed by PDGF stimulation. Electrophoretic samples were prepared to conduct Western blot using antibodies against phosphorylated signal transduction molecules (AKT, ERK, PKD, PLCγ1, and S6 ribosomal protein) and phosphotyrosine. The effect on the intracellular signal transduction from a PDGF receptor was evaluated. […] The eIF4E, 4E-BP-1, and histone H3 bands confirmed that equal amounts of proteins subjected to electrophoresis.
(§2) Bisebromoamide (1) was added in such a manner that the final concentration became 0.01, 0.1, 1, and 10 μM, in order to determine the presence or absence of inhibition, and the inhibition pattern thereof. The effective inhibitory concentration against each signal transduction molecule activity was investigated.

[1] = tested on: phosphorylation of S6 ribosomal protein (S6R); test: protein kinase inhibition: Western blot of phosphorylated S6 ribosomal protein in PDGF-stimulated NRK cells; conditions: treated 3 hours, PDGF stimulation, 10, 1 and 0.1 μM
Protocol: as §1, §2

[2] = tested on: phosphorylation of PKD/PKC; test: protein kinase inhibition: Western blot of phosphorylated PKD/PKC in PDGF-stimulated NRK cells; conditions: treated 3 hours, PDGF stimulation, 10, 1 and 0.1 μM
Protocol: as §1, §2

phosphorylation of ERK = test: protein kinase inhibition: Western blot of phosphorylated ERK in PDGF-stimulated NRK cells
Protocol: as §1, §2

phosphorylation of PLCγ1 = test: protein kinase inhibition: Western blot of phosphorylated PLCγ1 in PDGF-stimulated NRK cells; conditions: treated 3 hours, PDGF stimulation, 10, 1 and 0.1 μM
Protocol: as §1, §2

HeLa S3 cell = test: growth inhibitory activity against HeLa S3 cell; conditions: Homo sapiens
Text: The present inventors conducted research on the derivatives of the compound to complete the present invention.
The cyanobacterium Lyngbya sp. collected in Okinawa Prefecture was extracted with MeOH, and partitioned between H2O and AcOEt. The resulting AcOEt layer was further partitioned between 90% MeOH and n-hexane. The 90% MeOH layer thus obtained was separated and purified with various chromatographies using the growth inhibitory activity against tumor cells as an index. As a result, Bisebromoamide (1), which is a novel peptide, was isolated.
The planar structure of the compound was primarily determined by various two-dimensional NMR spectral analyses. […] Subsequently, in order to determine the absolute configuration of Bisebromoamide (1) including eight chiral centers, acid hydrolysis was conducted using 9 M HCl. The resulting acid hydrolysate was fractionated by HPLC, obtaining fractions of Leu, N-Me-Tyr, 4-Me-Pro, N-Me-Phe, Opp, and that of a mixture of Ala and 2-methylcystine. […] Furthermore, 4-Me-Pro, Opp, Ala, and 2-methylcystine were subjected to derivatization using Marfey's reagent, and then analyzed by reversed phase HPLC. […] However, it also turned out that the Opp and 4-Me-Pro completely epimerized at a-position during the acid hydrolysis. Therefore, we reduced the ketone of Opp using NaBH4 before conducting the acid hydrolysis. […]

[3] = tested on: 39 types of human cancer cells; test: growth inhibitory activity screening using 39 types of human cancer cells (sulforhodamine B colorimetric assay); conditions: 48 h, 39 human cancer cell lines, cultured for 2 days, read-out: average GI50 value across all of the cell lines tested
Protocol: Bisebromoamide (1) is a strong cytotoxic substance containing a high degree of D-amino acids and unusual amino acids. In particular, compounds having a 4-Me-Pro, N-Me-3-bromo-Tyr, and N-pivalamide moiety linking to 4-methylthiazoline are very rare, and the 2-Opp unit is unprecedented in natural products. Bisebromoamide (1) was subjected to screening using 39 types of human cancer cells. […] The average GI50 value across all of the cell lines tested was 40 nM.
Cancer cells were seeded in a 96-well plate. A sample solution was added thereto on the following day, and cultured for 2 days. Cell growth was evaluated by sulforhodamine B colorimetric assay. The 39 total cancer cell lines that were tested included 7 lung cancer (Lu) lines, 6 stomach cancer (St) lines, 5 colon cancer (Co) lines, 6 brain neoplasm (CNS) lines, 5 breast cancer (Br) lines, 2 renal cancer (Re) lines, 2 prostatic cancer (xPg) lines, and 1 melanoma (Me) line. The effective concentration deviation of each cancer cell stock from the mean effective drug concentration of the 39 cancer cell lines measured was calculated and expressed as the fingerprint.

cancer cell growth = test: inhibitory activity of derivatives against cancer cell growth
Text: The alcohol and hydrazone were examined for their inhibitory activities against cancer cell growth and phosphorylation of ERK.

CCC(=O)C1CCCN1C(=O)[C@H](Cc1ccccc1)N(C)C(=O)[C@@H](CC(C)C)NC(=O)[C@]1(C)CSC([C@@H]2C[C@H](C)CN2C(=O)C(Cc2ccc(O)c(Br)c2)N(C)C(=O)[C@H](C)NC(=O)C(C)(C)C)=N1 (stereo partly drawn) [Bisebromoamide (1), Bisebromoamide] (Piv-A[ξNMeTyr(3-Br)][X1][dL][NMeF]-X2)
effect on phosphorylation of AKT (phosphorylation of AKT): no effect
effect on phosphorylation of S6 ribosomal protein (S6R) [1]: no effect
effect on phosphorylation of PKD/PKC [2]: no effect
inhibition of phosphorylation of ERK (phosphorylation of ERK; NRK cells, treated 3 hours, PDGF stimulation, 10, 1 and 0.1 μM): selectively inhibited
effect on phosphorylation of PLCγ1 (phosphorylation of PLCγ1): no effect
IC50 (HeLa S3 cell): 0.04 µg/mL (≈ 0.0391 µM)
GI50 [3]: 40 nM

CCO [alcohol]
inhibitory activity against phosphorylation of ERK, compared with Bisebromoamide (1) (phosphorylation of ERK): Results similar to those for Bisebromoamide (1)
inhibitory activity against cancer cell growth, compared with Bisebromoamide (1) (cancer cell growth): Results similar to those for Bisebromoamide (1)
